The target in one assay is SOS1 (Homo sapiens (Human), UniProt Q07889). The assay is described as follows: Ras-SOS interaction assay (HTRF). Format: biochemical. The source says: The ability of any compound of the present disclosure to reduce a Ras protein signaling output by, e.g., interfering or disrupting interaction (or binding) between SOS1 and a Ras protein can be assessed in vitro. For example, the equilibrium interaction of human SOS1 (hSOS1) with human wildtype Kras or K-Ras mutant (e.g., hK-Ras G12C mutant, or hK-RasG12C) can be assessed as a proxy or an indication for a subject compound's ability to inhibit SOS. Detection of such interaction is achieved by measuring homogenous time-resolved fluorescence resonance energy transfer (HTRF) from (i) a fluorescence resonance energy transfer (FRET) donor (e.g., antiGST-Europium) that is bound to GST-tagged K-RasG12C to (ii) a FRET acceptor (e.g., anti-6His-XL665) bound to a His-tagged hSOS1.
The assay buffer can contain 5 mM HEPES pH 7.4, 150 mM NaCl, 10 mM EDTA, 1 mM DTT, 0.05% BSA, 0.0025% (v/v) Igepal and 100 mM KF. A Ras working solution is prepared in assay buffer containing typically 10 nM of the protein construct (e.g., GST-tagged hK-RasG12C) and 2 nM of the FRET donor (e.g., antiGST-Eu(K) from Cisbio, France). A SOS1 working solution is prepared in assay buffer containing typically 10 nM of the protein construct (e.g., His-hSOS1) and 10 nM of the FRET acceptor (e.g., anti-6His-XL665 from Cisbio, France). An inhibitor control solution is prepared in assay buffer containing 10 nM of the FRET acceptor without the SOS1 protein.
A fixed reaction mixture with or without test compound is transferred into a 384-well plate. Ras working solution is added to all wells of the test plate. SOS1 working solution is added to all wells except for those that are subsequently filled the inhibitor control solution. After approximately 60 min incubation, the fluorescence is measured with a M1000Pro plate reader (Tecan) using HTRF detection (excitation 337 nm, emission 1: 620 nm, emission 2: 665 nm). Compounds are tested in duplicates at different concentrations (for example, 10 μM, 2.5 μM, 0.63 μM, 0.16 μM, 0.04 μM, 0.01 μM test compound). The ratiometric data (i.e., emission 2 divided by emission 1) is used to calculate IC50 values against SOS1 using GraphPad Prism (GraphPad software).

In assay [1] the test system is MIA PaCa-2 cells (K-Ras G12C). The assay can be described thus: Ras-SOS cellular growth inhibition assay (CellTiter-Glo, 3D). The format is cell-based. As to the method: MIA PaCa-2 (ATCC CRL-1420) and NCI-H1792 (ATCC CRL-5895) cell lines comprise a G12C mutation can be used to assess Ras cellular signaling in vitro, e.g., in response to a subject compound of the present disclosure. […] Cell culture medium (comprising, for example, MIA PaCa-2 cells) is prepared with DMEM/Ham's F12 (e.g., with stable Glutamine, 10% FCS, and 2.5% Horse Serum. NCI-H1792 culture medium is prepared with RPMI 1640 (e.g., with stable Glutamine) and 10% FCS. A CellTiter-Glo (CTG) luminescent based assay (Promega) is used to assess growth of the cells, as a measurement of the ability of the compounds herein to inhibit Ras signaling in the cells. The cells (e.g., 800-1200 per well) are seeded in their respective culture medium in standard tissue culture-treated ultra-low attachment surface 96-well format plates (Corning Costar #3474). The day after plating, cells are treated with a dilution series (e.g., a 9 point 3-fold dilution series) of the compounds herein (e.g., approximately 125 μl final volume per well). Cell viability can be monitored (e.g., approximately 5 days later) according to the manufacturer's recommended instructions, where the CellTiter-Glo reagent is added (e.g., approximately 65 μl), vigorously mixed, covered, and placed on a plate shaker (e.g., approximately for 20 min) to ensure sufficient cell lysis prior to assessment of luminescent signal. The IC50 values are determined using the four-parameter fit. The resulting IC50 value is a measurement of the ability of the compounds herein to reduce cell growth of Ras-driven cells as representative tumor cells.

In assay [2] the test system is NCI-H1975 cells (EGFR T790M L858R). The assay is described as follows: EGFR-SOS cellular inhibition assay (CellTiter-Glo, 3D). Format: cell-based.
The mark [3] stands for this setting: K-RasG13D utilized, read-out: IC50 inhibition of SOS.
[4] abbreviates: Homo sapiens, MIA PaCa-2, 120 h, MIA PaCa-2, 3D proliferation, about 5 days, read-out: Bio-Cell-Prolif-3D (MiaPaca2 IC50).
Setting [5] is: Homo sapiens, 120 h, NCI-H1975, 3D proliferation, about 5 days, read-out: Bio-Cell-Prolif-3D (H1975 IC50).
The mark [6] stands for this setting: K-RasG13D, read-out: IC50 value against SOS1.
The mark [7] stands for this setting: Homo sapiens, NCI-H1975, EGFR T790M L858R, read-out: IC50 in inhibiting growth of NCI-H1975 cell line.
[8] abbreviates: Homo sapiens, MIA PaCa-2, MIA PaCa-2, read-out: IC50 in inhibiting MIA PaCa-2 cell growth.

Like-named read-outs stand apart in the source and are kept apart here.

SOS1, sequence (Q07889 564-1049): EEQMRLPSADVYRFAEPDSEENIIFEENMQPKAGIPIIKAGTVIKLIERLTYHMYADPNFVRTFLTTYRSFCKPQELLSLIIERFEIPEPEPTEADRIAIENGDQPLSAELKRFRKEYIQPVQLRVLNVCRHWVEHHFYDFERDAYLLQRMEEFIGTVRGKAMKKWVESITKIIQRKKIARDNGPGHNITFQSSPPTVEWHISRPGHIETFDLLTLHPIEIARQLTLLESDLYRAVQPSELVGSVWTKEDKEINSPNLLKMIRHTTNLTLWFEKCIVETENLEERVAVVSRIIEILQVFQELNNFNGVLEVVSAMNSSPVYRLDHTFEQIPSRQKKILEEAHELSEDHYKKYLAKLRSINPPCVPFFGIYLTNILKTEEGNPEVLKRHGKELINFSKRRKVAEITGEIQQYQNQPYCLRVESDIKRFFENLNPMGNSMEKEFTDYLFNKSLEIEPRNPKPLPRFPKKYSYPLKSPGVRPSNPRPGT

For the compound `COc1nc2ncnc(N[C@H](C)c3cccc(C(F)F)c3F)c2cc1C1(C(F)F)CC1` [Compound 185, (R)-N-(1-(3-(difluoromethyl)-2-fluorophenyl)ethyl)-6-(1-(difluoromethyl)cyclopropyl)-7-methoxypyrido[2,3-d]pyrimidin-4-amine], the IC50 fell in the range of 100 to 1000 nM on SOS1 (setting [3]), 1000 to 10000 nM in assay [1] (setting [4]) and 1000 to 10000 nM in assay [2] (setting [5]).

On to `CC(C)N1CCN(c2cc3c(N[C@H](C)c4cccc(C(F)F)c4F)ncnc3nc2OC2CN(C)C2)CC1` [Compound 414, (R)-N-(1-(3-(difluoromethyl)-2-fluorophenyl)ethyl)-6-(4-isopropylpiperazin-1-yl)-7-((1-methylazetidin-3-yl)oxy)pyrido [2,3-d]pyrimidin-4-amine], for which the half-maximal inhibitory concentration (IC50) on SOS1 (setting [3]) was less than 100 nM; on SOS1 (setting [6]), less than 50 nM; in assay [1] (setting [4]), not above 1000 nM; in assay [2] (setting [5]), not above 1000 nM; in assay [2] (setting [7]), less than 500 nM.

With `Cc1nc(N[C@H](C)c2cccc(C(F)(F)C3CCN(C(C)C)CC3)c2)c2cc(N3CCN(C(C)C)CC3)c(Cl)nc2n1` [Compound 293, (R)-7-chloro-N-(1-(3-(difluoro(1-isopropylpiperidin-4-yl)methyl)phenyl)ethyl)-6-(4-isopropylpiperazin-1-yl)-2-methylpyrido[2,3-d] pyrimidin-4-amine], the 50% inhibitory concentration (IC50) on SOS1 (setting [3]) was less than 100 nM; on SOS1 (setting [6]) it was less than 50 nM; in assay [1] (setting [4]), not above 1000 nM; in assay [1] (setting [8]), less than 500 nM; in assay [2] (setting [5]), not above 1000 nM; in assay [2] (setting [7]), less than 500 nM.

As for `COc1nc2nc(C)nc(N[C@H](C)c3cccc(C(F)(F)CO)c3F)c2cc1C1CCS(=O)(=O)CC1` [Compound 174, (R)-4-(4-((1-(3-(1,1-difluoro-2-hydroxyethyl)-2-fluorophenyl)ethyl)amino)-7-methoxy-2-methylpyrido[2,3-d]pyrimidin-6-yl)tetrahydro-2H-thiopyran 1,1-dioxide], the IC50 was less than 100 nM on SOS1 (setting [3]); less than 50 nM at SOS1 (setting [6]); not above 1000 nM in assay [1] (setting [4]); less than 500 nM in assay [1] (setting [8]); not above 1000 nM in assay [2] (setting [5]); less than 500 nM in assay [2] (setting [7]).

Regarding `Cc1nc(N[C@H](C)c2cccc(C(F)(F)F)c2C)c2cc(N3CCS(=O)(=O)CC3)c(Cl)nc2n1` [Compound 390, (R)-4-(7-chloro-2-methyl-4-((1-(2-methyl-3-(trifluoromethyl)phenyl)ethyl)amino)pyrido[2,3-d]pyrimidin-6-yl) thiomorpholine 1,1-dioxide], the half-maximal inhibitory concentration (IC50) is less than 100 nM at SOS1 (setting [3]); less than 50 nM at SOS1 (setting [6]); not above 1000 nM in assay [1] (setting [4]); less than 500 nM in assay [1] (setting [8]); not above 1000 nM in assay [2] (setting [5]); less than 500 nM in assay [2] (setting [7]).

For `CCN1CCC(c2cc3c(N[C@H](C)c4cccc(C(F)(F)F)c4F)nc(C)nc3nc2OC)CC1` [Compound 288, (R)-6-(1-ethylpiperidin-4-yl)-N-(1-(2-fluoro-3-(trifluoromethyl)phenyl)ethyl)-7-methoxy-2-methylpyrido [2,3-d]pyrimidin-4-amine], the IC50 is less than 100 nM on SOS1 (setting [3]); less than 50 nM on SOS1 (setting [6]); not above 1000 nM in assay [1] (setting [4]); less than 500 nM in assay [1] (setting [8]); not above 1000 nM in assay [2] (setting [5]); less than 500 nM in assay [2] (setting [7]).

For the compound `Cc1nc(N[C@H](C)c2cccc(C(F)F)c2F)c2cc(C3CCN(C)CC3)c(OCCN(C)C)nc2n1` [Compound 155], the IC50 in assay [1] (setting [4]) and in assay [2] (setting [5]) was not above 1000 nM in each case.

Consider `COc1nc2nc(C)nc(N[C@H](C)c3cccc(C(F)(F)F)c3C)c2cc1C1CCN(C)CC1` [Compound 380, (R)-7-methoxy-2-methyl-N-(1-(2-methyl-3-(trifluoromethyl)phenyl)ethyl)-6-(1-methylpiperidin-4-yl)pyrido[2,3-d] pyrimidin-4-amine], for which the half-maximal inhibitory concentration (IC50) at SOS1 (setting [3]) was less than 100 nM; at SOS1 (setting [6]) it was less than 50 nM; in assay [1] (setting [8]), less than 500 nM.

In the case of “(R)-4-(4-((1-(3-(2-(2-(dimethylamino)ethoxy)-1,1-difluoroethyl)-2-fluorophenyl)ethyl)amino)-7-methoxy-2-methylpyrido[2,3-d]pyrimidin-6-yl)tetrahydro-2H-thiopyran 1,1-dioxide [Compound 271]”, the IC50 in assay [1] (MIA PaCa-2, 3D proliferation, about 5 days, read-out: Bio-Cell-Prolif-3D (MiaPaca2 IC50)) was not above 1000 nM; in assay [1] (MIA PaCa-2, read-out: IC50 in inhibiting MIA PaCa-2 cell growth) it was less than 500 nM; in assay [2] (NCI-H1975, 3D proliferation, about 5 days, read-out: Bio-Cell-Prolif-3D (H1975 IC50)) it was not above 1000 nM; in assay [2] (NCI-H1975, EGFR T790M L858R, read-out: IC50 in inhibiting growth of NCI-H1975 cell line) it was less than 500 nM.

On to `COc1nc2nc(C)nc(N[C@H](C)c3cccc(C(F)(F)C4CCN(C(C)C)CC4)c3F)c2cc1C1(C#N)CC1` [Compound 377, (R)-1-(4-((1-(3-(difluoro(1-isopropylpiperidin-4-yl)methyl)-2-fluorophenyl)ethyl)amino)-7-methoxy-2-methylpyrido[2,3-d]pyrimidin-6-yl)cyclopropane-1-carbonitrile], for which the IC50 in assay [1] (setting [4]) is not above 1000 nM; in assay [1] (setting [8]), less than 500 nM; in assay [2] (setting [5]), not above 1000 nM; in assay [2] (setting [7]), less than 500 nM.

On to `Cc1nc(N[C@H](C)c2cccc(C(F)F)c2F)c2cc(C3(C#N)CC3)c(OC3CCOCC3)nc2n1` [Compound 403, (R)-1-(4-((1-(3-(difluoromethyl)-2-fluorophenyl)ethyl)amino)-2-methyl-7-((tetrahydro-2H-pyran-4-yl)oxy)pyrido [2,3-d]pyrimidin-6-yl)cyclopropane-1-carbonitrile], for which the IC50 at SOS1 (setting [3]) lay in the range of 100 to 1000 nM.

Consider `COc1nc2nc(C)nc(N[C@H](C)c3cccc(C(F)(F)C4CCN(C)CC4)c3F)c2cc1N1CCN(C(C)C)CC1` [Compound 182, (R)-N-(1-(3-(difluoro(1-methylpiperidin-4-yl)methyl)-2-fluorophenyl)ethyl)-6-(4-isopropylpiperazin-1-yl)-7-methoxy-2-methylpyrido[2,3-d]pyrimidin-4-amine], for which the IC50 in assay [1] (setting [4]) is not above 1000 nM; in assay [1] (setting [8]), less than 500 nM; in assay [2] (setting [5]) it was not above 1000 nM; in assay [2] (setting [7]), less than 500 nM.

For the compound `Cc1nc(N[C@H](C)c2cccc3c2OC(C)(C)C3(F)F)c2cc(N3CCN(C(C)C)CC3)c(OCC3COC3)nc2n1` [Compound 274, (R)—N-(1-(3,3-difluoro-2,2-dimethyl-2,3-dihydrobenzofuran-7-yl)ethyl)-6-(4-isopropylpiperazin-1-yl)-2-methyl-7-(oxetan-3-ylmethoxy)pyrido[2,3-d]pyrimidin-4-amine], at SOS1 (setting [3]), the IC50 is 100 to 1000 nM.

Regarding `COc1nc2ncnc(N[C@H](C)c3cccc(C(F)(F)F)c3F)c2cc1C1CCN(C)CC1` [Compound 281, (R)-N-(1-(2-fluoro-3-(trifluoromethyl)phenyl)ethyl)-7-methoxy-6-(1-methylpiperidin-4-yl)pyrido[2,3-d] pyrimidin-4-amine], on SOS1 (setting [3]), the half-maximal inhibitory concentration (IC50) fell in the range of 100 to 1000 nM.

Source of the values: patent publication US11648254B2 (Kumquat Biosciences Inc., priority 2021, dated 2023).
